Reference: PMC10578927, “An unconventional gatekeeper mutation sensitizes inositol hexakisphosphate kinases to an allosteric inhibitor” (eLife, 2023)
pIC50: −log10 of the molar value.

What was measured:
Type in all cases: biochemical
IP6K1^L210V [1] = molecular target: T1, IP6K1^L210V (Homo sapiens, UniProt Q92551, L210V); experiment: Michaelis–Menten and Lineweaver–Burk kinetics (NMR); settings: versus ATP, two inhibitor concentrations
T1 construct: made in house; host or cells: E. coli Arctic Express
T1 sequence (Q92551 whole entry L210V): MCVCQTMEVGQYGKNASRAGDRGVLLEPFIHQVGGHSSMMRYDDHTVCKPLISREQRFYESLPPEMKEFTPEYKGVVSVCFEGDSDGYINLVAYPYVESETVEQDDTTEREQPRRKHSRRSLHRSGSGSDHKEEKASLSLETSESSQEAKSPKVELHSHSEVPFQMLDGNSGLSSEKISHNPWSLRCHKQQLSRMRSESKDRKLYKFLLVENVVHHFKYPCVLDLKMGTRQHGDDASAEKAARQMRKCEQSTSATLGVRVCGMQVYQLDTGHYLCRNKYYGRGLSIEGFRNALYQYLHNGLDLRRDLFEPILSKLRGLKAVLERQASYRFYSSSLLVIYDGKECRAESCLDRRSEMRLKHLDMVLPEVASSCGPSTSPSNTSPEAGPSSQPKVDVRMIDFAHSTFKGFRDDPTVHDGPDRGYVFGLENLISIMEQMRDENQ
Method: Kinetic assays were performed in D2O in a total volume of 500 µl containing the same buffer components for IP6K and IP6KA constructs as stated for the NMR activity assays above. […] If applicable, inhibitor was added as a DMSO-d6 stock at a final DMSO concentration of 1%. Otherwise, DMSO-d6 was added to the same percentage. The samples were equilibrated at 37°C for 5 min and the reaction initiated by adding 100 µM [^13C6]-InsP6. The reaction time was adjusted so that conversion would not exceed 20% to remain in the linear range for initial velocity measurements. The reaction was quenched with 38 µl 700 mM EDTA pH* 8.0 and transferred into an NMR tube before being measured on a Bruker […] 600 PLUS with an NMR pulse program developed previously ([Harmel et al., 2019]). Initial velocities were calculated by dividing the amount of generated product by the product of reaction time in seconds and mass of the kinase in mg.

IP6KA^wt = molecular target: T2, IP6KA^wt (Entamoeba histolytica, UniProt N9UNA8); experiment: NMR activity assay for EhIP6KA constructs
T2 sequence (N9UNA8 1-270): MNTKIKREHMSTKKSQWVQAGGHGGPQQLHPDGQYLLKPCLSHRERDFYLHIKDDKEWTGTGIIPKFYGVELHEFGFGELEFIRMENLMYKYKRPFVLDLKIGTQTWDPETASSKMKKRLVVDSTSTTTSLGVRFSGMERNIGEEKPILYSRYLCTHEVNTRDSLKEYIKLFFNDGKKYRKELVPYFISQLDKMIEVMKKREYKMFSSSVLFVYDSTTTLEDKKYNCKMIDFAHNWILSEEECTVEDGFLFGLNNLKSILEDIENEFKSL
Method: The NMR assay for EhIP6KA activity was performed similarly as described before ([Harmel et al., 2019]) with slight alterations. Enzyme assays were performed in D2O in a total volume of 150 µl containing 20 mM MES pH* 6.4, 50 mM NaCl, 6 mM MgCl2, 1 mM ATP, 0.2 mg/ml BSA, 1 mM DTT, 5 mM creatine phosphate, and 1 U/ml creatine kinase (ATP-regenerating system) and 50 nM kinase if not otherwise stated. MES, NaCl, and BSA were prepared as buffer A and DTT and creatine phosphate as buffer B in D2O and were adjusted to pH* 6.4, respectively. If applicable, inhibitor was added as a DMSO-d6 stock in a twofold dilution series at a final DMSO concentration of 1% if not otherwise mentioned. Otherwise, DMSO-d6 was added to the same percentage. The samples were equilibrated at 37°C for 3 min and the reaction initiated by adding 100 µM [^13C6]-InsP6. The reaction was quenched with 400 µl quenching solution (20 mM EDTA pD 6.0, 68.75 mM NaCl) and transferred into an NMR tube before being measured on a Bruker […] 600 PLUS with an NMR pulse program developed previously ([Harmel et al., 2019]).

IP6K2^L206V = molecular target: T3, IP6K2^L206V (Homo sapiens, UniProt Q9UHH9, L206V); experiment: NMR activity assay, [13C6]-InsP6 to 5PP-InsP5
T3 construct: made in house; host or cells: E. coli Arctic Express
T3 sequence (Q9UHH9 1-426 L206V): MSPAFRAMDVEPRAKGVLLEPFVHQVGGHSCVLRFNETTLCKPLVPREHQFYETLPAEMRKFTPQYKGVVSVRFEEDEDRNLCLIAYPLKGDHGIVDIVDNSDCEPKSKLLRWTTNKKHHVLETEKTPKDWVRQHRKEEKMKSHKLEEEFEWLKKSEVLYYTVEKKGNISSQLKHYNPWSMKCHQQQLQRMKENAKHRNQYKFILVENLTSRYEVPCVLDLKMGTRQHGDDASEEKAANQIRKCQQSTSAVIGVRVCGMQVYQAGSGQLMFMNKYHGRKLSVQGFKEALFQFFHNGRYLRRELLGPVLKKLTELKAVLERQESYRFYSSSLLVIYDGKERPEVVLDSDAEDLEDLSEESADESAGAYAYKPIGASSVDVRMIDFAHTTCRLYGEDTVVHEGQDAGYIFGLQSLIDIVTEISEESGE
Method: (§1) The NMR assay for IP6K activity was performed similarly as described before ([Harmel et al., 2019]) with slight alterations. Enzyme assays were performed in D2O in a total volume of 150 µl containing 20 mM 4-(2-hydroxyethyl)-1-piperazineethanesulfonic acid (HEPES) pH* 6.8, 50 mM NaCl, 6 mM MgCl2, 1 mM ATP, 0.2 mg/ml BSA, 1 mM DTT, 5 mM creatine phosphate and 1 U/ml creatine kinase (ATP-regenerating system) and 50 nM kinase if not otherwise stated. HEPES, NaCl, and BSA were prepared as buffer A and DTT and creatine phosphate as buffer B in D2O and were adjusted to pH* 6.8, respectively. If applicable, inhibitor was added as a DMSO-d6 stock in a twofold dilution series at a final DMSO concentration of 1% if not otherwise mentioned. Otherwise, DMSO-d6 was added to the same percentage. The samples were equilibrated at 37°C for 3 min and the reaction initiated by adding 100 µM [^13C6]-InsP6.

IP6K1^L210V [2] = molecular target: T1, IP6K1^L210V; experiment: NMR activity assay, [13C6]-InsP6 to 5PP-InsP5, with ATP-regenerating system
Text: (§2) The gatekeeper mutants L210G and L210A of IP6K1 were generated by site-directed mutagenesis and the enzymes were recombinantly expressed, analogous to the WT kinase, as MBP-fusion proteins. To assess their catalytic activity, we used an NMR assay that harnesses fully ^13C-labeled InsP6 as a substrate and enables direct product readout of 5PP-InsP5 (Figure 2b and Figure 2—figure supplement 1; [Puschmann et al., 2019]; [Harmel et al., 2019]). […] Likewise, IP6K2 suffered a drastic decline in substrate turnover upon gatekeeper mutation to glycine (Figure 2—figure supplement 2).
as §1

IP6K1^wt = molecular target: T4, IP6K1^wt (Homo sapiens, UniProt Q92551); experiment: as above; settings: 1 mM ATP, ATP-regenerating system
T4 construct: made in house; host or cells: E. coli Arctic Express
T4 sequence (Q92551 whole entry): as the sequence (Q92551 whole entry L210V) above, with V210L counted along it
Text: as §2, §1

With `O=C(O)c1ccc2c(c1)C(=O)N(c1ccc(-c3nc4ccc(N5C(=O)c6ccc(C(=O)O)cc6C5=O)cc4[nH]3)cc1)C2=O` [FMP-201300] the “mechanism of inhibition (Lineweaver–Burk)” value (IP6K1^L210V [1]) was “allosteric mechanism”, the pIC50 (IP6KA^wt) was 5.24 and the pIC50 (IP6K2^L206V; NMR assay) was 6.73. For the same molecule, the “times more potent against IP6K2^L206V compared to IP6K2^wt” value (IP6K2^L206V; ratio of IC50 values) was 11, the pIC50 (IP6K1^L210V [2]; 100 μM InsP6) was 7.12 and the pIC50 (IP6K1^L210V [2]; 500 μM InsP6) was 7.06. The “difference in IC50 values measured at 100 and 500 µM InsP6” value (IP6K1^L210V [2]; IP6K1^L210V) was “negligible”, the pIC50 (IP6K1^L210V [2]; NMR assay, 1 mM ATP, ATP-regenerating system) was 6.94 and the pIC50 (IP6K1^wt) was 6.09.
